Reference: article PMC7751408, “Production, purification and biochemical characterisation of a novel lipase from a newly identified lipolytic bacterium Staphylococcus caprae NCU S6” (Journal of Enzyme Inhibition and Medicinal Chemistry, 2020)

System: T1, SCNL (lipase from Staphylococcus caprae NCU S6)
T1 construct: native extracellular enzyme purified from culture supernatant of the source strain (ammonium sulphate, ultrafiltration, Sephadex G-50, DEAE-Sepharose); ~87 kDa by SDS-PAGE
Test: colorimetric p-nitrophenol release at […] nm, Lineweaver-Burk
Type: biochemical
Conditions: 0.1-5.0 mM p-NPP, optimum conditions (optimal pH 9.0 and 40 °C); free enzyme

CCCCCCCCCCCCCCCC(=O)Oc1ccc([N+](=O)[O-])cc1 [p-nitrophenyl palmitate]
Km: 695 µM
